Here are results for one compound from ChEMBL document CHEMBL4340572, “Gentiopicroside isolated from Gentiana scabra Bge. inhibits adipogenesis in 3T3-L1 cells and reduces body weight in diet-induced obese mice” (Bioorg Med Chem Lett, 2019).

By inhibition is commonly meant the share of the control response that was lost under treatment.

Active and inactive are the calls of the source. The rule behind the calls is not given here.

The subject of data set [1] is 3T3-L1. Briefly: Cytotoxicity against mouse 3T3L1 cells assessed as reduction in cell viability up to 10 uM. It is filed as cell-based.
Data set [2] relates to 3T3-L1. Briefly: Anti-adipogenic activity in mouse 3T3L1 cells grown in differentiation media assessed as decrease in lipid accumulation up to 10 uM incubated for 8 days by Oil Red O staining based method. It is filed as functional.
For data set [3], the system named is 3T3-L1. Briefly: Inhibition of cell differentiation in mouse 3T3L1 cells assessed as reduction in pre-adipocyte differentiation into matured adipocytes at 5 uM incubated for 8 days followed by compound wash out measured by oil red O staining based method relative to control. In kind it is functional. To be noted: 3T3-L1, 192 h.
Data set [4] concerns 3T3-L1. Nature of the data set: Downregulation of PPARgamma mRNA expression in mouse 3T3L1 cells up to 10 uM incubated for 8 days followed by compound wash out measured by RT-PCR method. In kind it is functional, cell-based.
Data set [5] deals with 3T3-L1. Briefly: Downregulation of C/EBPalpha mRNA expression in mouse 3T3L1 cells up to 10 uM incubated for 8 days followed by compound wash out measured by RT-PCR method. It is filed as functional, cell-based.
Data set [6] concerns 3T3-L1. Briefly: Downregulation of LPL mRNA expression in mouse 3T3L1 cells up to 10 uM incubated for 8 days followed by compound wash out measured by RT-PCR method. In kind it is functional, cell-based.
Data set [7] deals with 3T3-L1. Briefly: Downregulation of FABP4 mRNA expression in mouse 3T3L1 cells up to 10 uM incubated for 8 days followed by compound wash out measured by RT-PCR method. In kind it is functional, cell-based.
The test system of data set [8] is 3T3-L1. Briefly: Anti-adipogenic activity in mouse 3T3L1 cells grown in differentiation media assessed as decrease in lipid accumulation incubated for 8 days by Oil Red O staining based method. In kind it is functional, cell-based.
The test system of data set [9] is 3T3-L1. Nature of the data set: Downregulation of DGAT2 mRNA expression in mouse 3T3L1 cells up to 10 uM incubated for 8 days followed by compound wash out measured by RT-PCR method. In kind it is functional, cell-based.
The subject of data set [10] is 3T3-L1. Nature of the data set: Antiinflammatory activity in mouse 3T3L1 cells assessed as reduction in IL-6 mRNA expression up to 10 uM incubated for 8 days followed by compound wash out measured by RT-PCR method. It is filed as functional, cell-based.
Data set [11] relates to 3T3-L1. Briefly: Antiinflammatory activity in mouse 3T3L1 cells assessed as reduction in TNFalpha mRNA expression up to 10 uM incubated for 8 days followed by compound wash out measured by RT-PCR method. In kind it is functional, cell-based.
The subject of data set [12] is 3T3-L1. Nature of the data set: Antiinflammatory activity in mouse 3T3L1 cells assessed as reduction in NFkappaB1 mRNA expression level up to 10 uM incubated for 8 days followed by compound wash out measured by RT-PCR method. It is filed as functional, cell-based.
The test system of data set [13] is 3T3-L1. Briefly: Downregulation of SCD1 mRNA expression in mouse 3T3L1 cells up to 10 uM incubated for 8 days followed by compound wash out measured by RT-PCR method. It is filed as functional, cell-based.
Data set [14] relates to 3T3-L1. Nature of the data set: Downregulation of FAS mRNA expression in mouse 3T3L1 cells up to 10 uM incubated for 8 days followed by compound wash out measured by RT-PCR method. It is filed as functional, cell-based.
Data set [15] concerns 3T3-L1. Briefly: Downregulation of SREBP-1c mRNA expression in mouse 3T3L1 cells up to 10 uM incubated for 8 days followed by compound wash out measured by RT-PCR method. In kind it is functional, cell-based.
The test system of data set [16] is Mus musculus. Briefly: Antiobesity activity in HFD-induced obese C57BL/6N mouse model assessed as decrease in body weight at 50 mg/kg, po administered once daily for 12 weeks and measured every week for 12 weeks. It is filed as functional, organism-based.
For data set [17], the system named is Mus musculus. Nature of the data set: Antiobesity activity in HFD-induced obese C57BL/6N mouse model assessed as decrease in epididymal fat mass level at 50 mg/kg, po administered once daily for 12 weeks. In kind it is functional, organism-based.
The test system of data set [18] is Mus musculus. Briefly: Antiobesity activity in HFD-induced obese C57BL/6N mouse model assessed as decrease in visceral fat mass at 50 mg/kg, po administered once daily for 12 weeks. In kind it is functional, organism-based.
The subject of data set [19] is Mus musculus. Briefly: Antiobesity activity in HFD-induced obese C57BL/6N mouse model assessed as reduction in epididymal WAT adipocyte size at 50 mg/kg, po administered once daily for 12 weeks by H and E staining based microscopic method. It is filed as functional, organism-based.

`C=C[C@@H]1C2=CCOC(=O)C2=CO[C@H]1O[C@@H]1O[C@H](CO)[C@@H](O)[C@H](O)[C@H]1O` [GENTIOPICROSIDE]: the Activity result is “Non-Toxic” in the data set with 3T3-L1 [1] and “Dose-dependent effect” in the data set with 3T3-L1 [8]. Besides, the “inhibition (INH)” value in the data set on 3T3-L1 [2] is “<=64%”. In addition, in the data set with 3T3-L1 [3], the inhibition at 5 µM is at most 72%. In addition, the outcome in the data set on 3T3-L1 [4], in the data set on 3T3-L1 [5], with 3T3-L1 [6], in the data set with 3T3-L1 [7], with 3T3-L1 [9] and in the data set with 3T3-L1 [10] was Active. Moreover, the outcome in the data set with 3T3-L1 [11], in the data set with 3T3-L1 [12], in the data set with 3T3-L1 [13], in the data set with 3T3-L1 [14], in the data set with 3T3-L1 [15] and in the data set with Mus musculus [16] was Active. In addition, the result in the data set with Mus musculus [17], with Mus musculus [18] and in the data set on Mus musculus [19] was Active.
